This passage reports IC50, Ratio IC50 and inhibition results from ChEMBL document CHEMBL3217610, “SAR investigations on a novel class of gamma-secretase modulators based on a unique scaffold” (Medchemcomm, 2013).

Assay [1] has as its target Gamma-secretase. The assay can be described thus: Modulation of gamma-secretase (unknown origin) assessed as inhibition of amyloid beta 42 production. In kind it is protein-complex assay, Homo sapiens.
The target in assay [2] is Gamma-secretase. The assay is described as follows: Modulation of gamma-secretase (unknown origin) assessed as inhibition of amyloid beta 40 production. Format: protein-complex assay, Homo sapiens.
Assay [3] concerns the target T1, Gamma-secretase (Homo sapiens) (UniProt Q96BI3+Q9NZ42+Q8WW43+P49768+Q92542+P49810). The assay can be described thus: Selectivity ratio of IC50 for modulation of gamma-secretase (unknown origin) assessed as inhibition of amyloid beta 40 production to IC50 for modulation of gamma-secretase (unknown origin) assessed as inhibition of amyloid beta 42 production. In kind it is protein-complex assay.

The target in assay [4] is T1, Gamma-secretase (Homo sapiens). The assay is described as follows: Modulation of gamma-secretase (unknown origin) assessed as inhibition of amyloid beta 40 production at 20 uM relative to control. In kind it is protein-complex assay.

`CC(=O)O[C@@H]([C@@H]1C[C@@H](C)[C@H]2[C@H](O1)[C@H](O)[C@@]1(C)[C@@H]3CC[C@H]4C(C)(C)[C@@H](OC(=O)NC5CN6CCC5CC6)CC[C@@]45C[C@@]35CC[C@]21C)C(C)(C)O` (some centres undefined): the half-inhibitory concentration (IC50) (usually the concentration at which inhibition is half-maximal) amounted to 84 nM at Gamma-secretase [1] and 2400 nM on Gamma-secretase [2]. In addition, the Ratio IC50 in assay [3] worked out at 29.
The corresponding values for `CC(=O)O[C@@H]([C@@H]1C[C@@H](C)[C@H]2[C@H](O1)[C@H](O)[C@@]1(C)[C@@H]3CC[C@H]4C(C)(C)[C@@H](OC(=O)CCC(=O)O)CC[C@@]45C[C@@]35CC[C@]21C)C(C)(C)O` are 1600 nM, 18000 nM and 11.
For the compound `CC(=O)O[C@@H]([C@@H]1C[C@@H](C)[C@H]2[C@H](O1)[C@H](O)[C@@]1(C)[C@@H]3CC[C@H]4C(C)(C)[C@@H](OC(=O)NC5CCC5)CC[C@@]45C[C@@]35CC[C@]21C)C(C)(C)O`, the IC50 at Gamma-secretase [1] worked out at 470 nM. Also, the inhibition – broadly, the percentage by which the read-out fell short of the control – in assay [4] was 26%. For the same compound, in assay [3], the Ratio IC50 is > 42.
With `CC(=O)O[C@@H]([C@@H]1C[C@@H](C)[C@H]2[C@H](O1)[C@H](O)[C@@]1(C)[C@@H]3CC[C@H]4C(C)(C)[C@@H](OC(=O)N5CCOCC5)CC[C@@]45C[C@@]35CC[C@]21C)C(C)(C)O`, the results for the half-inhibitory concentration (IC50) on Gamma-secretase [1] and on Gamma-secretase [2] were 220 nM and 13600 nM, respectively. Further, the Ratio IC50 in assay [3] came to 62.
Take `CC(=O)O[C@@H]([C@@H]1C[C@@H](C)[C@H]2[C@H](O1)[C@H](O)[C@@]1(C)[C@@H]3CC[C@H]4C(C)(C)[C@@H](OC(=O)NCC(=O)O)CC[C@@]45C[C@@]35CC[C@]21C)C(C)(C)O`: the half-maximal inhibitory concentration (IC50) at Gamma-secretase [1] was found to be 2500 nM. For the same compound, in assay [4], the inhibition was 37%. For the same compound, the Ratio IC50 in assay [3] is > 8.
On to `CC(=O)O[C@@H]([C@@H]1C[C@@H](C)[C@H]2[C@H](O1)[C@H](O)[C@@]1(C)[C@@H]3CC[C@H]4C(C)(C)[C@@H](OC(=O)NC5CNC5)CC[C@@]45C[C@@]35CC[C@]21C)C(C)(C)O`, for which the results for the 50% inhibitory concentration (IC50) on Gamma-secretase [1] and at Gamma-secretase [2] were 47 nM and 330 nM, respectively. In addition, in assay [3], the Ratio IC50 was found to be 7.
With `CC(=O)O[C@@H]([C@@H]1C[C@@H](C)[C@H]2[C@H](O1)[C@H](O)[C@@]1(C)[C@@H]3CC[C@H]4C(C)(C)[C@@H](OC(=O)NCCN5CCOCC5)CC[C@@]45C[C@@]35CC[C@]21C)C(C)(C)O`, on Gamma-secretase [1], the IC50 came to 230 nM. Besides, in assay [4], the inhibition is 31%. Moreover, the Ratio IC50 in assay [3] is > 86.
Take `CC(=O)O[C@@H]([C@@H]1C[C@@H](C)[C@H]2[C@H](O1)[C@H](O)[C@@]1(C)[C@@H]3CC[C@H]4C(C)(C)[C@@H](OC(=O)Cc5ccccn5)CC[C@@]45C[C@@]35CC[C@]21C)C(C)(C)O`: the IC50 was 780 nM at Gamma-secretase [1] and 7200 nM on Gamma-secretase [2]. Besides, the Ratio IC50 in assay [3] came out at 9.
Take `CC(=O)O[C@@H]([C@@H]1C[C@@H](C)[C@H]2[C@H](O1)[C@H](O)[C@@]1(C)[C@@H]3CC[C@H]4C(C)(C)[C@@H](OC(=O)CN)CC[C@@]45C[C@@]35CC[C@]21C)C(C)(C)O`: the concentration for half-maximal inhibition (IC50) on Gamma-secretase [1] was 95 nM.
On the same count and under the same terms, in the case of `C[C@@H]1C[C@@H]([C@H](O)C(C)(C)O)O[C@H]2[C@H]1[C@@]1(C)CC[C@@]34C[C@@]35CC[C@H](O[C@@H]3OC[C@@H](O)[C@H](O)[C@H]3O)C(C)(C)[C@@H]5CC[C@H]4[C@]1(C)[C@H]2O` it was 3100 nM.
Consider `CC(=O)O[C@@H]([C@@H]1C[C@@H](C)[C@H]2[C@H](O1)[C@H](O)[C@@]1(C)[C@@H]3CC[C@H]4C(C)(C)[C@@H](OC(=O)NCc5ccccn5)CC[C@@]45C[C@@]35CC[C@]21C)C(C)(C)O`, for which the IC50 on Gamma-secretase [1] stood at 560 nM. Also, in assay [4], the inhibition turned out to be 32%. In addition, the Ratio IC50 in assay [3] is > 35.
Consider `CC(=O)O[C@@H]([C@@H]1C[C@@H](C)[C@H]2[C@H](O1)[C@H](O)[C@@]1(C)[C@@H]3CC[C@H]4C(C)(C)[C@@H](OC(N)=O)CC[C@@]45C[C@@]35CC[C@]21C)C(C)(C)O`, for which the half-inhibitory concentration (IC50) on Gamma-secretase [1] worked out at 200 nM. The inhibition in assay [4] was determined as 27%. Moreover, the Ratio IC50 in assay [3] was > 100.
For the compound `CC(=O)O[C@@H]([C@@H]1C[C@@H](C)[C@H]2[C@H](O1)[C@H](O)[C@@]1(C)[C@@H]3CC[C@H]4C(C)(C)[C@@H](OC(=O)C5CCN5)CC[C@@]45C[C@@]35CC[C@]21C)C(C)(C)O` (mixture of isomers), the half-inhibitory concentration (IC50) at Gamma-secretase [1] is 220 nM.
`CC(=O)O[C@@H]([C@@H]1C[C@@H](C)[C@H]2[C@H](O1)[C@H](O)[C@@]1(C)[C@@H]3CC[C@H]4C(C)(C)[C@@H](O[C@@H]5OC[C@@H](O)[C@H](O)[C@H]5O)CC[C@@]45C[C@@]35CC[C@]21C)C(C)(C)O`: the results for the IC50 on Gamma-secretase [1] and on Gamma-secretase [2] were 60 nM and 1000 nM, respectively.
Take `CC(=O)O[C@@H]([C@@H]1C[C@@H](C)[C@H]2[C@H](O1)[C@H](O)[C@@]1(C)[C@@H]3CC[C@H]4C(C)(C)[C@@H](OC(=O)N5CCC5)CC[C@@]45C[C@@]35CC[C@]21C)C(C)(C)O`: the results for the IC50 at Gamma-secretase [1] and at Gamma-secretase [2] were 340 nM and 14700 nM, respectively. In addition, the Ratio IC50 in assay [3] came out at 43.
On to `CC(=O)O[C@@H]([C@@H]1C[C@@H](C)[C@H]2[C@H](O1)[C@H](O)[C@@]1(C)[C@@H]3CC[C@H]4C(C)(C)[C@@H](OC(=O)c5ccccn5)CC[C@@]45C[C@@]35CC[C@]21C)C(C)(C)O`, for which the IC50 worked out at 520 nM on Gamma-secretase [1] and 13000 nM on Gamma-secretase [2]. Also, the Ratio IC50 in assay [3] came out at 25.
On to `CC(=O)O[C@@H]([C@@H]1C[C@@H](C)[C@H]2[C@H](O1)[C@H](O)[C@@]1(C)[C@@H]3CC[C@H]4C(C)(C)[C@@H](OC(=O)C5CCCO5)CC[C@@]45C[C@@]35CC[C@]21C)C(C)(C)O` (mixture of isomers), for which, at Gamma-secretase [1], the concentration for half-maximal inhibition (IC50) came to 860 nM. For the same compound, in assay [4], the inhibition came out at 44%. The Ratio IC50 in assay [3] is > 23.
For the compound `CC(=O)O[C@@H]([C@@H]1C[C@@H](C)[C@H]2[C@H](O1)[C@H](O)[C@@]1(C)[C@@H]3CC[C@H]4C(C)(C)[C@@H](O)CC[C@@]45C[C@@]35CC[C@]21C)C(C)(C)O`, the figures for the half-inhibitory concentration (IC50) at Gamma-secretase [1] and at Gamma-secretase [2] were 600 nM and 14000 nM, respectively.
With `CC(=O)OC(C)(C)[C@H]1O[C@@]23O[C@H]1C[C@@H](C)C2[C@@]1(C)CC[C@@]24C[C@@]25CC[C@H](O[C@@H]2OC[C@@H](O)[C@H](O)[C@H]2O)C(C)(C)[C@@H]5CC[C@H]4[C@]1(C)[C@H]3O` (some centres undefined), on Gamma-secretase [1], the IC50 stood at 3000 nM.
`CC(=O)O[C@@H]([C@@H]1C[C@@H](C)[C@H]2[C@H](O1)[C@H](O)[C@@]1(C)[C@@H]3CC[C@H]4C(C)(C)[C@@H](OC(=O)NCCN)CC[C@@]45C[C@@]35CC[C@]21C)C(C)(C)O`: the IC50 is 91 nM at Gamma-secretase [1] and 3000 nM on Gamma-secretase [2]. Also, the Ratio IC50 in assay [3] amounted to 33.
`CC(=O)O[C@@H]([C@@H]1C[C@@H](C)[C@H]2[C@H](O1)[C@H](O)[C@@]1(C)[C@@H]3CC[C@H]4C(C)(C)[C@@H](OC(=O)c5ccncc5)CC[C@@]45C[C@@]35CC[C@]21C)C(C)(C)O`: the IC50 on Gamma-secretase [1] amounted to 1000 nM.
As to `CC(=O)O[C@@H]([C@@H]1C[C@@H](C)[C@H]2[C@H](O1)[C@H](O)[C@@]1(C)[C@@H]3CC[C@H]4C(C)(C)[C@@H](OC(=O)[C@@H]5CCCN5)CC[C@@]45C[C@@]35CC[C@]21C)C(C)(C)O`, the results for the IC50 on Gamma-secretase [1] and at Gamma-secretase [2] were 230 nM and 4600 nM, respectively. Moreover, in assay [3], the Ratio IC50 stood at 20.
Take `CC(=O)O[C@@H]([C@@H]1C[C@@H](C)[C@H]2[C@H](O1)[C@H](O)[C@@]1(C)[C@@H]3CC[C@H]4C(C)(C)[C@@H](OC(=O)NC5COC5)CC[C@@]45C[C@@]35CC[C@]21C)C(C)(C)O`: the IC50 on Gamma-secretase [1] is 450 nM. Further, the inhibition in assay [4] came to 40%. In addition, the Ratio IC50 in assay [3] is > 44.
In the case of `CC(=O)O[C@H]1CC[C@]23C[C@]24CC[C@]2(C)[C@@H]5[C@H](O[C@H]([C@H](OC(C)=O)C(C)(C)O)C[C@H]5C)[C@H](O)[C@@]2(C)[C@@H]4CC[C@H]3C1(C)C`, the IC50 at Gamma-secretase [1] was 760 nM; at Gamma-secretase [2], 12000 nM. The Ratio IC50 in assay [3] amounted to 16.
On the same counts, the results for `CC(=O)O[C@@H]([C@@H]1C[C@@H](C)[C@H]2[C@H](O1)[C@H](O)[C@@]1(C)[C@@H]3CC[C@H]4C(C)(C)[C@@H](OC(=O)C5CNC5)CC[C@@]45C[C@@]35CC[C@]21C)C(C)(C)O` are 55 nM, 1300 nM and 24.
With `CC(=O)O[C@@H]([C@@H]1C[C@@H](C)[C@H]2[C@H](O1)[C@H](O)[C@@]1(C)[C@@H]3CC[C@H]4C(C)(C)[C@@H](OC(=O)c5cccnc5)CC[C@@]45C[C@@]35CC[C@]21C)C(C)(C)O`, the IC50 worked out at 260 nM on Gamma-secretase [1] and 14000 nM at Gamma-secretase [2]. The Ratio IC50 in assay [3] is 54.
With `CC(=O)O[C@@H]([C@@H]1C[C@@H](C)[C@H]2[C@H](O1)[C@H](O)[C@@]1(C)[C@@H]3CC[C@H]4C(C)(C)[C@@H](OC(=O)C5(C)COC5)CC[C@@]45C[C@@]35CC[C@]21C)C(C)(C)O`, on Gamma-secretase [1], the IC50 is 590 nM. Also, the inhibition in assay [4] came out at 41%. The Ratio IC50 in assay [3] is > 33.
As for `CC(=O)O[C@@H]([C@@H]1C[C@@H](C)[C@H]2[C@H](O1)[C@H](O)[C@@]1(C)[C@@H]3CC[C@H]4C(C)(C)[C@@H](OC(=O)CN(C)C)CC[C@@]45C[C@@]35CC[C@]21C)C(C)(C)O`, the values for the half-inhibitory concentration (IC50) at Gamma-secretase [1] and on Gamma-secretase [2] were 570 nM and 8400 nM, respectively. For the same compound, the Ratio IC50 in assay [3] worked out at 15.
Turning to `CC(=O)O[C@@H]([C@@H]1C[C@@H](C)[C@H]2[C@H](O1)C(=O)[C@@]1(C)[C@@H]3CC[C@H]4C(C)(C)[C@@H](O[C@@H]5OC[C@@H](O)[C@H](O)[C@H]5O)CC[C@@]45C[C@@]35CC[C@]21C)C(C)(C)O`, the IC50 on Gamma-secretase [1] was found to be 600 nM; at Gamma-secretase [2] it was 9800 nM.
